How the values were obtained:
[1] = system: serum ACE; experiment: oral effectiveness: intrinsic serum ACE activity in rats; type: in vivo, female Sprague-Dawley rat; details: oral 1 mg/kg
Method: B. In certain experiments, as identified, an alternative assay system was employed using [^3 H]-HipGlyGly as substrate as described by Ryan, J. W., et al., Biochem. J. 167 501 (1977).
Female Sprague-Dawley rats, approximately 250 g weight, were fasted overnight and then administered either 0.5 ml of saline, via stomach tube, or 0.5 ml saline containing compound (I) at a dose of 1 mg per kg of body weight. At timed intervals the rats were beheaded using a guillotine and 3 ml-5 ml blood was collected. The sera were assayed for intrinsic ACE activity, using the assay of Example 216B.

[2] = system: pressor effects of angiotensin I; experiment: oral effectiveness: blood pressure response to angiotensin I in anesthetized rats; type: in vivo, rat
Summary of the method: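 Fasted rats under pentobarbital anesthesia (50-60 mg/kg i.p.), ventilated, with carotid arterial pressure recorded; i.v. angiotensin I (80 ng, 160 ng or 400 ng/kg) or angiotensin II (80 ng) challenges repeated at timed intervals after oral gavage of compound (2-20 mg/kg, 10 mg, 17 or 23 μmol/kg) in aqueous NaHCO3.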

[3] = system: pressor effects of angiotensin II; experiment: oral: blood pressure response to angiotensin II in anesthetized rats; type: in vivo, rat; details: 2 or 5 mg/kg, angiotensin II 80 ng
Method: Rats (210-290 g body weight) were fasted overnight and then anesthetized with intraperitoneal pentobarbital, 50-60 mg/kg. Tracheostomy was performed and the animals were ventilated mechanically. A cannula was inserted into a femoral vein for injection of angiotensin I or II, and a second cannula was inserted into a common carotid artery for direct measurement of arterial blood pressure. Heparin, 1,000 units, was injected via the femoral vein to prevent coagulation. Blood pressure was measured with a pressure transducer connected to a polygraph. The rats were injected with 80 ng of angiotensin I or angiotensin II in 20 μl of 0.9 g % NaCl; an amount of antiotensin I or II sufficient to raise mean arterial blood pressure by 27-40 mm Hg. After the responsiveness of a given rat to angiotensins I and II was established, compound (I), at 2 or 5 mg/kg (drug dissolved in 0.5 ml of H2 O plus 10 μl of 1N NaHCO3), was given via a stomach tube. At timed intervals, the effects of 80 ng of angiotensin I or angiotensin II on mean arterial blood pressure were tested.
Rats were prepared as described in Example 222. Compound (II) [N-benzoyl-L-phenylalanylthiopropanoyl)-L-proline] was given orally, via a stomach tube, at a dose of 12 mg/kg or 20 mg/kg. Compound (II) was dissolved in 0.5 ml of H2 O plus 10 μl of 1N NaHCO3. […]

SMILES: C[C@H](CSC(=O)C(Cc1ccccc1)NC(=O)c1ccccc1)C(=O)N1CCC[C@H]1C(=O)O (stereo partly drawn) [Compound (I), 2-benzoylphenylalanylthio-2-D-methylpropanoyl-L-proline]
- Serum ACE activity ([1]; 5 min, run 1): 100% of Control
- Serum ACE activity ([1]; 5 min, run 2): 100% of Control
- Serum ACE activity ([1]; 10 min, run 1): 65% of Control
- Serum ACE activity ([1]; 10 min, run 2): 52% of Control
- Serum ACE activity ([1]; 30 min, run 1): 50% of Control
- Serum ACE activity ([1]; 30 min, run 2): 45% of Control
- Serum ACE activity ([1]; 60 min, run 1): 50% of Control
- Serum ACE activity ([1]; 60 min, run 2): 42% of Control
- Serum ACE activity ([1]; 90 min, run 1): 20% of Control
- Serum ACE activity ([1]; 90 min, run 2): 20% of Control
- Blood Pressure Response to 80 ng of Angiotensin I ([2]; oral 2 mg/kg, 6 min, Rat 3): 111 % of control
- Blood Pressure Response to 80 ng of Angiotensin I ([2]; oral 2 mg/kg, 12 min, Rat 3): 93 % of control
- Blood Pressure Response to 80 ng of Angiotensin I ([2]; oral 2 mg/kg, 18 min, Rat 3): 81 % of control
- Blood Pressure Response to 80 ng of Angiotensin I ([2]; oral 2 mg/kg, 24 min, Rat 3): 85 % of control
- Blood Pressure Response to 80 ng of Angiotensin I ([2]; oral 2 mg/kg, 35 min, Rat 3): 56 % of control
- Blood Pressure Response to 80 ng of Angiotensin I ([2]; oral 2 mg/kg, 58 min, Rat 3): 56 % of control
- Blood Pressure Response to 80 ng of Angiotensin I ([2]; oral 2 mg/kg, 68 min, Rat 3): 52 % of control
- Blood Pressure Response to 80 ng of Angiotensin I ([2]; oral 2 mg/kg, 88 min, Rat 3): 30 % of control
- Blood Pressure Response to 80 ng of Angiotensin I ([2]; oral 2 mg/kg, 118 min, Rat 3): 37 % of control
- Blood Pressure Response to 80 ng of Angiotensin I ([2]; oral 2 mg/kg, 138 min, Rat 3): 60 % of control
- Blood Pressure Response to 80 ng of Angiotensin I ([2]; oral 2 mg/kg, 169 min, Rat 3): 37 % of control
- Blood Pressure Response to 80 ng of Angiotensin I ([2]; oral 2 mg/kg, 185 min, Rat 3): 37 % of control
- Blood Pressure Response to 80 ng of Angiotensin I ([2]; oral 2 mg/kg, 205 min, Rat 3): 44 % of control
- Blood Pressure Response to 80 ng of Angiotensin I ([2]; oral 5 mg/kg, 6 min, Rat 2): 67 % of control
- Blood Pressure Response to 80 ng of Angiotensin I ([2]; oral 5 mg/kg, 12 min, Rat 1): 41 % of control
- Blood Pressure Response to 80 ng of Angiotensin I ([2]; oral 5 mg/kg, 12 min, Rat 2): 57 % of control
- Blood Pressure Response to 80 ng of Angiotensin I ([2]; oral 5 mg/kg, 18 min, Rat 1): 36 % of control
- Blood Pressure Response to 80 ng of Angiotensin I ([2]; oral 5 mg/kg, 24 min, Rat 2): 43 % of control
- Blood Pressure Response to 80 ng of Angiotensin I ([2]; oral 5 mg/kg, 35 min, Rat 1): 23 % of control
- Blood Pressure Response to 80 ng of Angiotensin I ([2]; oral 5 mg/kg, 35 min, Rat 2): 37 % of control
- Blood Pressure Response to 80 ng of Angiotensin I ([2]; oral 5 mg/kg, 48 min, Rat 1): 18 % of control
- Blood Pressure Response to 80 ng of Angiotensin I ([2]; oral 5 mg/kg, 48 min, Rat 2): 17 % of control
- Blood Pressure Response to 80 ng of Angiotensin I ([2]; oral 5 mg/kg, 58 min, Rat 1): 23 % of control
- Blood Pressure Response to 80 ng of Angiotensin I ([2]; oral 5 mg/kg, 58 min, Rat 2): 17 % of control
- Blood Pressure Response to 80 ng of Angiotensin I ([2]; oral 5 mg/kg, 68 min, Rat 2): 20 % of control
- Blood Pressure Response to 80 ng of Angiotensin I ([2]; oral 5 mg/kg, 78 min, Rat 2): 17 % of control
- Blood Pressure Response to 80 ng of Angiotensin I ([2]; oral 5 mg/kg, 88 min, Rat 2): 13 % of control
- Blood Pressure Response to 80 ng of Angiotensin I ([2]; oral 5 mg/kg, 118 min, Rat 1): 23 % of control
- Blood Pressure Response to 80 ng of Angiotensin I ([2]; oral 5 mg/kg, 185 min, Rat 2): 27 % of control
- Blood Pressure Response to 80 ng of Angiotensin I ([2]; oral 5 mg/kg, 205 min, Rat 2): 33 % of control
- Blood Pressure Response to 80 ng of Angiotensin I ([2]; oral 5 mg/kg, 213 min, Rat 2): 33 % of control
- Blood Pressure Response to 80 ng of Angiotensin I ([2]; oral 5 mg/kg, 226 min, Rat 2): 43 % of control
- duration of drug action ([2]; oral, 2 or 5 mg/kg): > 226 min
- effects of angiotensin II (specificity) [3]: not inhibited
